Eleven molecules from ChEMBL document CHEMBL4007386, “Design, synthesis of allosteric peptide activator for human SIRT1 and its biological evaluation in cellular model of Alzheimer's disease” (Eur J Med Chem, 2017) can be followed below.

Calls of active or inactive are those of the source. No cut-off for these calls is given here. Where a SMILES comes first, the peptide text is derived from it.

Experiment [1] deals with T1, NAD-dependent protein deacetylase sirtuin-1 (Homo sapiens) (UniProt Q96EB6).
T1 sequence (whole entry): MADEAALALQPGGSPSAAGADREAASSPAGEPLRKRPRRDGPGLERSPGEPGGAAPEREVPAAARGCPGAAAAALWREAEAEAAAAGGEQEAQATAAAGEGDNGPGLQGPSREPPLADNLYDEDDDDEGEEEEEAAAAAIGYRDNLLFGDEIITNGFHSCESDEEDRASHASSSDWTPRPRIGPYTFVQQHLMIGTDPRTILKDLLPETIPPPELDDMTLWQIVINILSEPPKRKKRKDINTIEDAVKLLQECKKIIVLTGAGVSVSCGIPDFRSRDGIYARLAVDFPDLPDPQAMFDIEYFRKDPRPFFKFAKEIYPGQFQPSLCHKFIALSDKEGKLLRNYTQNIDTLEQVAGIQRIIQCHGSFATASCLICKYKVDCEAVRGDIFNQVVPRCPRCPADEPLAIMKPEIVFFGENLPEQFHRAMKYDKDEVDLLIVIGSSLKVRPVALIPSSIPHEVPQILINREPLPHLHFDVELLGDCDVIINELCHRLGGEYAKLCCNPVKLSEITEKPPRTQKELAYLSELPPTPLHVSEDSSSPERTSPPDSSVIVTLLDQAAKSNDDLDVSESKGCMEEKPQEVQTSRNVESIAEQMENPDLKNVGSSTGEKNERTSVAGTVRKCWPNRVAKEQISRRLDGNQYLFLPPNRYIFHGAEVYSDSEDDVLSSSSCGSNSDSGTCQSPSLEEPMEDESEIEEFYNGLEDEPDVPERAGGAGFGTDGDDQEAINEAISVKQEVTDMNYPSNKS
Put plainly: Activation of SIRT1 in Alzheimer's disease patient serum assessed as increase in deacetylation of SIRT1 substrate peptide at 5 mM preincubated for 1 hr followed by substrate addition measured after 1 hr by fluorescence spectroscopic method.

Experiment [2] addresses T1, NAD-dependent protein deacetylase sirtuin-1 (Homo sapiens). In words: Activation of SIRT1 (unknown origin) expressed in bacterial expression system assessed as increase in enzyme activity at 100 uM using Fluorophore labeled-Arg-His-Lys-Lys (Ac) as substrate incubated for 30 mins in presence of NAD+ by fluorimetric method relative to control.
Experiment [3] shares this target. In words: Activation of SIRT1 (unknown origin) expressed in bacterial expression system assessed as increase in enzyme activity at 105 uM using Fluorophore labeled-Arg-His-Lys-Lys (Ac) as substrate incubated for 30 mins in presence of NAD+ by fluorimetric method relative to control.
Experiment [4] has the same target. In words: Activation of SIRT1 (unknown origin) expressed in bacterial expression system assessed as increase in enzyme activity at >145 uM using Fluorophore labeled-Arg-His-Lys-Lys (Ac) as substrate incubated for 30 mins in presence of NAD+ by fluorimetric method.
Experiment [5] has the same target. Put plainly: Activation of SIRT1 (unknown origin) expressed in bacterial expression system assessed as increase in enzyme activity using Fluorophore labeled-Arg-His-Lys-Lys (Ac) as substrate incubated for 30 mins in presence of NAD+ by fluorimetric method.
The target is the same in experiment [6]. In words: Activation of SIRT1 in Alzheimer's disease patient serum assessed as increase in deacetylation of SIRT1 substrate peptide at 1.5 to 3 mM preincubated for 1 hr followed by substrate addition measured after 1 hr by fluorescence spectroscopic method relative to control.
For experiment [7], the target named is T2, NAD-dependent protein deacetylase sirtuin-2 (Homo sapiens) (UniProt Q8IXJ6).
T2 sequence (whole entry): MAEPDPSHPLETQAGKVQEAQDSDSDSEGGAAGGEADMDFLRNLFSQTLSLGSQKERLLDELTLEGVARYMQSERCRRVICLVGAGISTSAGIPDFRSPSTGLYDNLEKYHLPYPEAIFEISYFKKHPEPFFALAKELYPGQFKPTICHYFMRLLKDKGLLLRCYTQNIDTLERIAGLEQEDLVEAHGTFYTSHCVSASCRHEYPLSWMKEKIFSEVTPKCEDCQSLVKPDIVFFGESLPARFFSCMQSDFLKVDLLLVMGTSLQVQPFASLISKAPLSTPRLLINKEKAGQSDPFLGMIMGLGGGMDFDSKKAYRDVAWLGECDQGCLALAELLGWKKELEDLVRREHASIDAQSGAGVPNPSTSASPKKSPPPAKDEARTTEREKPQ
In words: Activity at SIRT2 in Alzheimer's disease patient serum assessed as effect on deacetylation of SIRT2 substrate peptide at 1.5 to 3 mM preincubated for 1 hr followed by substrate addition measured after 1 hr by fluorescence spectroscopic method.

The target in experiment [8] is T1, NAD-dependent protein deacetylase sirtuin-1 (Homo sapiens). In words: Allosteric activation of SIRT1 in human IMR32 cells assessed as decrease in acetylation level of K382 residue of p53 after 48 hrs by Western blot method. In kind it is cell-based.
Experiment [9] has the same target. In words: Allosteric activation of SIRT1 in human IMR32 cells assessed as decrease in acetylation level of K382 residue of p53 at 160 uM after 48 hrs in presence of SIRT1 inhibitor nicotinamide by Western blot method. In kind it is cell-based. A general note: Immunoblotting shows a protein as a band on a membrane.
Experiment [10] has the same target. In words: Activation of SIRT1 in human IMR32 cells assessed as protection against amyloid beta (25 to 35)-induced toxicity by measuring cell viability at 10 uM after 48 hrs by MTT assay (reference value: 56.3 +/- 1.2%). In kind it is cell-based. In general terms: Tetrazolium dyes change colour on reduction, which living cells bring about.
For experiment [11] the target is unchanged. In words: Activation of SIRT1 in human IMR32 cells assessed as protection against amyloid beta (25 to 35)-induced toxicity by measuring cell viability at 20 uM after 48 hrs by MTT assay (reference value: 56.3 +/- 1.2%). The experiment is classed as cell-based.
Experiment [12] shares this target. In words: Activation of SIRT1 in human IMR32 cells assessed as protection against amyloid beta (25 to 35)-induced toxicity by measuring cell viability at 40 uM after 48 hrs by MTT assay (reference value: 56.3 +/- 1.2%). In kind it is cell-based.
For experiment [13] the target is unchanged. In words: Activation of SIRT1 in human IMR32 cells assessed as protection against amyloid beta (25 to 35)-induced toxicity by measuring cell viability at 80 uM after 48 hrs by MTT assay (reference value: 56.3 +/- 1.2%). In kind it is cell-based.

As for `NC(=O)c1cccnc1`, in experiment [1], the outcome was inactive.

`CC(C)C[C@H](NC(=O)[C@@H](N)CC(N)=O)C(=O)N[C@@H](CCCNC(=N)N)C(=O)O` (H-Asn-Leu-Arg-OH): the Activity in experiment [2] came out at 6%.

For `N=C(N)NCCC[C@H](NC(=O)[C@H](Cc1c[nH]c2ccccc12)NC(=O)[C@@H](N)CC(N)=O)C(=O)O` (H-Asn-Trp-Arg-OH), the Activity in experiment [2] is 24%.

On to `N=C(N)NCCC[C@H](NC(=O)[C@H](Cc1ccc(O)cc1)NC(=O)[C@@H](N)CC(N)=O)C(=O)O` (H-Asn-Tyr-Arg-OH), for which, in experiment [2], the Activity is 4%.

For `N=C(N)NCCC[C@H](NC(=O)[C@H](Cc1c[nH]c2ccccc12)NC(=O)[C@@H](N)CS)C(=O)O` (H-Cys-Trp-Arg-OH), the fold change (FC) in experiment [3] worked out at 2. In addition, the Activity in [2] is 97%; in [6], 21.2%; in [8], “Dose-dependent effect”; in experiment [10] it was 57.1%; in [11] it was 68%; in experiment [12], 79.8%. Also, the Activity in [13] is 83.4%. The result in experiment [4] was Active. The EC1.5 in experiment [5] was determined as 55 µM. Also, the result in [7] and in experiment [9] was inactive.

Turning to `N=C(N)NCCC[C@H](NC(=O)[C@H](Cc1ccc(O)cc1)NC(=O)[C@@H](N)CCC(N)=O)C(=O)O` (H-Gln-Tyr-Arg-OH), in experiment [2], the Activity amounted to 12%.

Turning to `N[C@@H](Cc1cnc[nH]1)C(=O)N[C@@H](CCC(=O)O)C(=O)N[C@@H](Cc1ccc(O)cc1)C(=O)O` (H-His-Glu-Tyr-OH), the Activity in experiment [2] was determined as 15%.

With `N=C(N)NCCC[C@H](NC(=O)[C@@H]1CCCN1C(=O)[C@@H](N)Cc1cnc[nH]1)C(=O)O` (H-His-Pro-Arg-OH), in [2], the Activity is -10%.

As for `N=C(N)NCCC[C@H](NC(=O)[C@H](Cc1ccc(O)cc1)NC(=O)[C@@H](N)Cc1cnc[nH]1)C(=O)O` (H-His-Tyr-Arg-OH), the Activity in experiment [2] came to 19%.

Consider `CC(C)[C@H](NC(=O)[C@@H](N)Cc1cnc[nH]1)C(=O)N[C@@H](CCCNC(=N)N)C(=O)O` (H-His-Val-Arg-OH), for which the Activity in experiment [2] was 5%.

Regarding `N=C(N)NCCC[C@H](NC(=O)[C@H](Cc1c[nH]c2ccccc12)NC(=O)[C@@H](N)Cc1ccccc1)C(=O)O` (H-Phe-Trp-Arg-OH), the Activity in experiment [2] came out at 28%.
